Assay results: US20230247990A1, “Stable Botanical Antimicrobial Compositions” (The Trustees of Columbia University in the city of New York, priority 2020, published 2023)

Test: Accelerated aging method, long term stability at 45° C.
Format: physicochemical
Conditions: temperature higher than 40° C., including 45° C. of the accelerated aging method
Method: In certain embodiments, the 1 year period is achieved through simulating such conditions with the accelerated aging method. The accelerated aging method can be conducted by keeping the solutions at 45° C. for 8 weeks, which is equivalent to stability of 1 year under regular, room temperature conditions.
The accelerated aging method was conducted by keeping the solutions at 45° C. for 8 weeks, which is equivalent to stability of 1 year at regular, room temperature conditions.

## C=CCCCCCCCCC(=O)O [Undecylenic acid]
  Solubility in solvents at elevated temperature: gradually precipitates
